Assay results: patent US20060116400A1, “Oxazolidinone and/or isoxazoline derivatives as antibacterial agents” (AstraZeneca AB, priority 2002, published 2006)
Converted amounts (≈) assume the structure as drawn.

Legend:
Type in all cases: cell-based
[1] = system: Staphylococcus aureus MSQS; assay: MIC, standard in-vitro test, agar dilution; details: Staphylococcus aureus MSQS (methicillin sensitive and quinolone sensitive), 10^4 CFU/spot, 37° C., 24 hours
Description: (§1) The following results were obtained on a standard in-vitro test system The activity is described in terms of the minimum inhibitory concentration (MIC) determined by the agar-dilution technique with an inoculum size of 10^4 CFU/spot. Typically, compounds are active in the range 0.01 to 256 μg/ml.
(§2) Staphylococci were tested on agar, using an inoculum of 10^4 CFU/spot and an incubation temperature of 37° C. for 24 hours—standard test conditions for the expression of methicillin resistance.

[2] = system: Staphylococcus aureus MRQR; assay: MIC, standard in-vitro test, agar dilution; details: Staphylococcus aureus MRQR (methicillin resistant and quinolone resistant), 10^4 CFU/spot, 37° C., 24 hours
Description: as §1, §2

Moraxella catarrhalis = assay: MIC, fastidious Gram negative organisms in Mueller-Hinton broth; details: Mueller-Hinton broth with hemin and NAD, 24 hours, 37° C., 5×10^4 CFU/well
Description: as §1
(§3) Streptococci and enterococci were tested on agar supplemented with 5% defibrinated horse blood, an inoculum of 10^4 CFU/spot and an incubation temperature of 37° C. in an atmosphere of 5% carbon dioxide for 48 hours—blood is required for the growth of some of the test organisms. Fastidious Gram negative organisms were tested in Mueller-Hinton broth, supplemented with hemin and NAD, grown aerobically for 24 hours at 37° C., and with an innoculum of 5×10^4 CFU/well

Haemophilus influenzae = assay: as above; details: Mueller-Hinton broth with hemin and NAD, 24 hours, 37° C., 5×10^4 CFU/well
Description: as §1, §3

Streptococcus pneumoniae = assay: MIC, standard in-vitro test, agar with 5% horse blood; details: agar with 5% defibrinated horse blood, 10^4 CFU/spot, 37° C., 5% carbon dioxide, 48 hours
Description: as §1, §3

Enterococcus faecium = assay: as above; details: agar with 5% defibrinated horse blood, 48 hours
Description: as §1, §3

[3] = system: Linezolid Resistant Streptococcus pneumoniae; assay: as above; details: agar with 5% defibrinated horse blood, 48 hours
Description: as §1, §3

O=C1O[C@@H](Cn2ccnn2)CN1c1ccc(-c2ccc(C3=NOC(CO)(CO)C3)cc2)c(F)c1 [Example 2, (5R)-3-{4′-(5,5-bis(Hydroxymethyl)-4,5-dihydroisoxazol-3-yl]-2-fluoro-1,1′-biphenyl-4-yl}-5-(1H-1,2,3-triazol-1-ylmethyl)-1,3-oxazolidin-2-one] was tested, and the MIC [1] was 0.5 µg/mL (≈ 1.07 µM), the MIC [2] was 0.5 µg/mL (≈ 1.07 µM) and the MIC (Moraxella catarrhalis) was 0.5 µg/mL (≈ 1.07 µM). It also gave an MIC (Haemophilus influenzae) of 4 µg/mL (≈ 8.56 µM), an MIC (Streptococcus pneumoniae) of 0.13 µg/mL (≈ 0.278 µM) and an MIC (Enterococcus faecium) of 0.25 µg/mL (≈ 0.535 µM). For the same compound, the MIC [3] was 1 µg/mL (≈ 2.14 µM).
